Values of other authors, collected in patent US20120289611A1, “PECTIN COMPOUNDS, METHODS OF USING PECTIN COMPOUNDS, AND METHODS OF CONTROLLING WATER SOLUBILITY” (priority 2009, published 2012).
Converted amounts (≈) assume the structure as drawn. “Also recorded” adds a separate entry of the source. Where a name gives a salt, the structure may show the parent alone.

Settings: for solubility in words: water, or solvent not stated; for solubility: in water (where stated)

SMILES	solubility in words	solubility [µg/mL]	solubility in words, other solvents (organic solvent named in the value, hydrochloride)
O=P(O)(O)C(O)(Cn1ccnc1)P(=O)(O)O [Zoledronic acid monohydrate]	sparingly soluble	–	–
CCCCc1nc(Cl)c(CO)n1Cc1ccc(-c2ccccc2-c2nn[nH]n2)cc1 [Losartan]	–	0.82 (≈ 1.94 µM)	–
Cc1cc2c(s1)Nc1ccccc1N=C2N1CCN(C)CC1 [Olanzapine]	practically insoluble in water	–	–
COc1ccccc1OCCNCC(O)COc1cccc2[nH]c3ccccc3c12 (centres unmarked) [Carvedilol]	–	0.583 (≈ 1.43 µM)	–
COc1ccc2nc([S@@+]([O-])Cc3ncc(C)c(OC)c3C)[nH]c2c1 [Esomeprazole]	very slightly soluble in water	–	–
CCCCc1nc(Cl)c(CO)n1Cc1ccc(-c2ccccc2-c2nnn[n-]2)cc1.[K+] [potassium losartan]	–	0.82	–

More lines, main results first:

solubility in words	solubility [µg/mL]	SMILES	solubility in words, other solvents (organic solvent named in the value, hydrochloride)
–	0.51 (≈ 1.02 µM)	CCC(=O)O[C@]1(C(=O)SCF)[C@H](C)C[C@H]2[C@@H]3C[C@H](F)C4=CC(=O)C=C[C@]4(C)[C@@]3(F)[C@@H](O)C[C@@]21C [Fluticasone propionate]	–
–	50.78	COC(=O)[C@H](c1ccccc1Cl)N1CCc2sccc2C1 [Clopidogrel bisulphate]	–
practically insoluble	–	C[C@@H]1C[C@H]2[C@@H]3CCC4=CC(=O)C=C[C@]4(C)[C@@]3(Cl)[C@@H](O)C[C@]2(C)[C@@]1(OC(=O)c1ccco1)C(=O)CCl [Mometasone furoate]	–
–	31	CN(C)CCCC1(c2ccc(F)cc2)OCc2cc(C#N)ccc21 (centres unmarked) [Citalopram Hydrobromide]	–
practically insoluble in water	–	CCc1ccc(CCOc2ccc(CC3SC(=O)NC3=O)cc2)nc1 (centres unmarked) [Pioglitazone hydrochloride]	slightly soluble in anhydrous ethanol; also recorded: very slightly soluble in acetone and acetonitrile; also recorded: insoluble in ether
–	0.97 (≈ 2.63 µM)	Cc1c(OCC(F)(F)F)ccnc1C[S+]([O-])c1nc2ccccc2[nH]1 (centres unmarked) [Lansoprazole]	–
practically insoluble	–	CCCc1nc2c(C)cc(-c3nc4ccccc4n3C)cc2n1Cc1ccc(-c2ccccc2C(=O)O)cc1 [Telmisartan]	–
